Here are results for twelve compounds from EP0686635A1, “Pyridylthiazolidinecarboxylic acid amide derivatives, their preparation and their therapeutic uses” (Sankyo Company Limited, priority 1991, dated 1993).

The subject of test [1] is passive cutaneous anaphylaxis (PCA) in rats. The test is described as follows: Inhibitory effect on passive cutaneous anaphylaxis (PCA) in rats. Particulars: dose 6.4 mg/kg p.o., 60 minutes before antigen challenge, exuded Evans Blue vs control group. It is filed as in vivo. The procedure:
According to Mota's method [I. Mota, Immunology, 7, 681 - 699 (1964)], antiserum (256 times the PCA titer) of rat against egg albumin was prepared and diluted four times with physiological saline. Male SD rats (5 weeks old) were used as the test animals in groups, each containing 4 animals. The rats were sensitized by intradermal injection of 0.05 ml of the diluted antiserum solution in the dorsal position. 48 hours after this injection, a suspension of the test compound in an aqueous 0.5% w/v tragacanth solution was orally administered to the rats, which had been fasted for one day, and 60 minutes later they were injected in the caudal vein with 5 ml/kg body weight of physiological saline containing 0.4% w/v egg albumin and 1.0% w/v Evans Blue. 30 minutes after this last injection, the rats were sacrificed with carbon dioxide and the Evans Blue exuded in the dorsal intradermal portion was determined according to Harada's method (Harada et al., J. Pharm. Pharmac., 23, 218 - 219 (1971)].
The results achieved from the test groups which were treated with a test compound were evaluated to determine the inhibitory rate by comparison with the average amount of exuded dye in a control group, which was not given the test compound.
The inhibitory rate was calculated by the following equation. Inhibitory rate (%) = (1-B/A) x 100 [formula] A: amount of exuded dye in the control group B: amount of exuded dye in the test group.

The subject of test [2] is intracutaneous reaction in rats by PAF. The test is described as follows: Inhibitory effect on intracutaneous reaction in rats by PAF. It is filed as in vivo. The conditions noted are these: dose 6.4 mg/kg p.o., 60 minutes before intradermal PAF, leaked Evans blue vs control group. The procedure: Male SD rats (5 weeks old) were used as the test animals in groups, each containing 4 animals. Each rat was administered orally with a suspension of the test compound in a 0.5% w/v aqueous tragacanth solution. Sixty minutes after the administration, aqueous physiological saline containing 1.0% w/v Evans blue was injected into the tail vein in an amount of 5 ml/kg of the body weight. Immediately after the injection, 0.05 ml of a solution containing 2 µg/ml of PAF was intradermally injected into the back of the rat to induce a cutanous reaction. After 30 minutes, the rats were sacrificed using carbon dioxide, and the quantity of Evans blue which had leaked into the skin of the back was determined by the method of Harada et al. [J. Pharm. Pharmac., 23, 218 - 219 (1971)]. The inhibition rate of the compound was calculated by comparing the average amount of colourant which had leaked in the group treated with the test compound with that of control group to which no test compound was administered.
The inhibition rate was calculated according to the following equation: Inhibition rate (%) = (1 - B/A) x 100 [formula] where: A: Amount of colourant leaked in the control group B: Amount of colourant leaked in the group to which the test compound was administered.

In test [3] the test system is PAF-induced blood platelet aggregation. The test is described as follows: Inhibitory effect in vitro against PAF-induced blood platelet aggregation. The class given is cell-based. The conditions noted are these: Oryctolagus cuniculus; rabbit platelet rich plasma, stimulated with ℓ-C16:0 PAF (10⁻⁸ ∼ 3 x 10⁻⁸ M), 37°C; read-out: Platelet aggregation inhibition, IC₅₀. The procedure:
Blood samples were obtained by cardiac puncture from a rabbit and one part by volume of each sample was immediately mixed with 0.1 part of a 3.8% w/v aqueous solution of sodium citrate. A platelet rich plasma (PRP) fraction was prepared by centrifuging the samples at 150 x G for 15 minutes at room temperature, and a platelet poor plasma (PPP) fraction was then prepared by further centrifugation at 1,000 x G for 15 minutes. The platelet count in the PRP was adjusted to 6 x 10⁵ per µℓ by the addition of an appropriate amount of the PPP fraction. According to the method reported by Born et al. [G.V.R. Born et al.: J. Physiol. 62, 67 - 68 (1962)], blood platelet aggregation was determined turbidimetrically in a 6-channel aggregometer (Hemetracer, NKB, Tokyo, Japan). Aliquots of the PRP (272 µℓ) were preincubated with 3 µℓ of a solution of the test compound in dimethyl sulphoxide for 1 minute, and then stimulated with ℓ-C16:0 PAF (at a final concentration of 10⁻⁸ ∼ 3 x 10⁻⁸ M) at 37°C with stirring (100 rpm). Changes in light transmission were monitored for 5 minutes. Vehicle (dimethyl sulphoxide) controls were tested simultaneously, and the inhibitory effects of the test compounds were assessed on the maximal aggregation. The IC₅₀ values were calculated by the method of least squares.

The next test deals with T1, PAF-receptor (Oryctolagus cuniculus, UniProt G1TEI7).
T1 construct: a precipitated blood platelet sample was obtained; from tissue; host or cells: rabbit blood platelets, membrane fraction from the 0.25 M / 1.5 M sucrose interface
The test is described as follows: Inhibitory effect on PAF-receptor binding. Set-up: species or system rabbit. Particulars: for IC50: rabbit platelet PAF-receptor membrane fraction, specific binding of ³H-PAF, read-out: Receptor binding inhibition, IC₅₀ (g/ml) (converted). An excerpt:
Blood samples were drawn from the heart of a rabbit. 1 part by volume of each sample was mixed immediately with 1/9 part of a 0.077 M solution of disodium ethylenediaminetetraacetate. After a similar procedure to that described in Experiment 2, a precipitated blood platelet sample was obtained. This blood platelet sample was washed, and, after repeated freesing and thawing to rupture the cells, it was placed on top of two layers consisting of 0.25 M and 1.5 M sucrose solutions. By centrifugation at 63,500 x G, for 2 hours at 4°C, the fraction obtained from the interface between the 0.25 M and 1.5 M sucrose solutions was collected and is regarded as a PAF-receptor membrane fraction. A receptor binding experiment was then conducted according to a method very similar to that reported by Hwang et al. [San-Bao Hwang et al.: J. Biol. Chem. 260, 15639 - 15645 (1985)]. The specific binding of ³H-PAF was measured using a Wattman GF/C filter. A test compound was dissolved in dimethyl sulphoxide and diluted 100 fold with a buffer solution containing 0.5% bovine serum albumin. Nine parts by volume of the solution, for a receptor binding experiment, was mixed with one part of the test compound solution prepared above. The percent inhibition of the specific binding was plotted against the log of the concentration of the test compound, and the 50% inhibitory concentration (IC₅₀) was calculated from the linear line connecting all the plotted points.

Each structure is given as a SMILES string. pIC50: −log10 of the molar value. In brackets after ≈: the same amount, converted by molar mass. Like-named read-outs stand apart in the source and are kept apart here.

T1 sequence (G1TEI7 1-342): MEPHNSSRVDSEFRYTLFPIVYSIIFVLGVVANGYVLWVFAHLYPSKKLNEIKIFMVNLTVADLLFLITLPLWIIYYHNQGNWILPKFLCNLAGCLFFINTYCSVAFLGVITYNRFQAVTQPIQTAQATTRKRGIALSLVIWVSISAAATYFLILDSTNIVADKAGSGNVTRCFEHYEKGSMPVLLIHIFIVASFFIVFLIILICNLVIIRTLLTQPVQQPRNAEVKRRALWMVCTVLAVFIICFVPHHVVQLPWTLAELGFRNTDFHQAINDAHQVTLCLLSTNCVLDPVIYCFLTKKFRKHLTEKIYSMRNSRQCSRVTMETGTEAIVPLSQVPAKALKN

Regarding `CN(CCOC(c1ccccc1)c1ccccc1)CCN(C)C(=O)[C@@H]1CSC(c2cccnc2)N1` (stereo partly drawn) [Example 1, (4R)-N-Methyl-N-{2-[N-(2-diphenylmethoxyethyl)-N-methylamino]ethyl}-2-(3-pyridyl)thiazolidine-4-carboxamide], the “Inhibitory rate (%)” value in test [1] came to 33%; in test [2], 57%. Besides, the IC50 in test [3] worked out at 0.063 µg/mL (≈ 0.128 µM).

Take `O=C([C@@H]1CSC(c2cccnc2)N1)N1CCN(CCOC(c2ccccc2)c2ccc(Cl)cc2)CC1` (some centres unmarked) [Example 4]: the values for the IC50 (at PAF-receptor; in test [3]) were 51.6 nM and 0.085 µg/mL (≈ 0.162 µM), respectively. Further, the “Inhibitory rate (%)” value in test [2] is on record as 64%.

In the case of `O=C([C@@H]1CSC(c2cccnc2)N1)N1CCN(CCN2CCC(=C(c3ccccc3)c3ccccc3)CC2)CC1` (stereo partly drawn) [Example 5, (4R)-1-{2-[4-(Diphenylmethylene)-1-piperidinyl]ethyl}-4-[2-(3-pyridyl)thiazolidin-4-ylcarbonyl]piperazine], the “Inhibitory rate (%)” value in test [1] is recorded as 42%.

As for `Cc1ccc(C(OCCN2CCN(C(=O)[C@@H]3CSC(c4cccnc4)N3)CC2)c2ccccc2)cc1` (some centres unmarked) [Example 6], in test [1], the “Inhibitory rate (%)” value stood at 45%. Further, the IC50 at PAF-receptor is 41.8 nM; in test [3], 0.055 µg/mL (≈ 0.109 µM).

Consider `O=C([C@@H]1CSC(c2cccnc2)N1)N1CCN(CCOC(c2ccccc2)c2ccccc2)CC1` (stereo partly drawn) [Example 7, (4R)-1-(2-Diphenylmethoxyethyl)-4-[2-(3-pyridyl)thiazolidin-4-ylcarbonyl]piperazine], for which the pIC50 (as a rule, the negative decadic logarithm of the IC50, by convention in mol/L) on PAF-receptor was 7.29. Besides, the “Inhibitory rate (%)” value in test [2] is on record as 70%. Also, in test [3], the IC50 turned out to be 0.095 µg/mL (≈ 0.194 µM).

As for `O=C([C@@H]1CSC(c2cccnc2)N1)N1CCN(CCOC(c2ccccc2)C2CCCCC2)CC1` (stereo partly drawn) [Example 11, (4R)-1-[2-(α-Cyclohexylbenzyloxy)ethyl]-4-[2-(3-pyridyl)thiazolidin-4-ylcarbonyl]piperazine], the figures for the IC50 (on PAF-receptor; in test [3]) were 445 nM and 0.072 µg/mL (≈ 0.146 µM), respectively.

As for `O=C([C@@H]1CSC(c2cccnc2)N1)N1CCCN(CCOC(c2ccc(F)cc2)c2ccc(F)cc2)CC1` (stereo partly drawn) [Example 12, (4R)-1-[2-Bis(4-fluorophenyl)methoxyethyl]-4-[2-(3-pyridyl)thiazolidin-4-ylcarbonyl]homopiperazine], the pIC50 on PAF-receptor was 6.41. The IC50 in test [3] was determined as 0.19 µg/mL (≈ 0.353 µM).

For the compound `O=C([C@@H]1CSC(c2cccnc2)N1)N1CCCN(CCOC(c2ccccc2)c2ccccc2)CC1` (stereo partly drawn) [Example 13, (4R)-1-(2-Diphenylmethoxyethyl)-4-[2-(3-pyridyl)thiazolidin-4-ylcarbonyl]homopiperazine], the negative-log IC50 (pIC50) on PAF-receptor is 6.56. Moreover, in test [3], the IC50 was 0.22 µg/mL (≈ 0.438 µM).

`O=C([C@@H]1CSC(c2cccnc2)N1)N1CCN(CCOC(c2ccc(F)cc2)c2ccc(F)cc2)CC1` (stereo partly drawn) [Example 14, (4R)-1-[2-Bis(4-fluorophenyl)methoxyethyl]-4-[2-(3-pyridyl)thiazolidin-4-ylcarbonyl]piperazine] showed a pIC50 on PAF-receptor of 7.72. In addition, the “Inhibitory rate (%)” value in test [2] is listed as 47%. Further, the IC50 in test [3] turned out to be 0.14 µg/mL (≈ 0.267 µM).

In the case of `O=C(NCCN1CCN2c3ccccc3Cc3ccccc3[C@@H]2C1)[C@@H]1CSC(c2cccnc2)N1` (stereo partly drawn) [Example 16, (4R)-N-{2-[(14bR)-1,2,3,4,10,14b-Hexahydrodibenzo[c,f]pyrazino[1,2-a]azepin-2-yl]ethyl}-2-(3-pyridyl)thiazolidine-4-carboxamide], the “Inhibitory rate (%)” value in test [1] and in test [2] was 62% in each case.

In the case of `O=C(NCCN1CCN2c3ccccc3Cc3ccccc3[C@H]2C1)[C@@H]1CSC(c2cccnc2)N1` (stereo partly drawn) [Example 17, (4R)-N-{2-[(14bS)-1,2,3,4,10,14b-Hexahydrodibenzo[c,f]pyrazino[1,2-a]azepin-2-yl]ethyl}-2-(3-pyridyl)thiazolidine-4-carboxamide], the “Inhibitory rate (%)” value in test [1] is 73%.

As to `O=C(NCCN1CCN2c3ccc(F)cc3Cc3ccccc3[C@H]2C1)[C@@H]1CSC(c2cccnc2)N1` (stereo partly drawn) [Example 25, (4R)-N-{2-[(14bS)-8-Fluoro-1,2,3,4,10,14b-hexahydrodibenzo[c,f]pyrazino[1,2-a]azepin-2-yl]ethyl}-2-(3-pyridyl)thiazolidine-4-carboxamide], the “Inhibitory rate (%)” value in test [1] is listed as 55%.
